From US20170146519A1, “STING AGONISTS AND METHODS OF SELECTING STING AGONISTS” (priority 2015, published 2017)

Tests used:
[1] = test system: innate antiviral genes IFNβ, ISG15, IFIT2, Viperin; assay: qPCR of innate antiviral genes in RAW264.7 cells; type: cell-based, mouse; settings: RAW264.7, 8 h, range of DMXAA concentrations
Excerpt: (§1) Multiple molecular analogs of G10 were thus constructed in an attempt to identify one that is active in both human and mouse cells. While this allowed characterization of essential and nonessential moieties within the molecule (FIG. 17), no derivatives were identified that were active across species. […] As such, the compound has been explored for multiple immunotherapeutic uses including anti-angiogenesis (Cao Z et al, Cancer Res 61, 1517-1521 (2001); incorporated by reference herein), vaccine adjuvanticity (Tang C K et al, PLoS ONE 8, e60038 (2013); incorporated by reference herein), anti-tumor immunology and antiviral activity (Guo F et al, Antimicrob Agents Chemother 59, 1273-1281 (2015); incorporated by reference herein). Patterns of DMXAA-stimulated innate immune activation in murine cells were then explored to evaluate their resemblance with those induced by G10 in human cells. FIG. 11A illustrates that DMXAA-induced IRF3 phosphorylation in RAW264.7 macrophage-like cells is detectable by 1 h post-treatment. […]
Total RNA was isolated from cells and DNased using a DNA Free RNA Isolation kit according to the manufacturer's protocol (Zymo Research) and quantified by UV spectrometry. […]

[2] = test system: Chikungunya virus (CHIKV); assay: Mouse model of CHIKV infection, serum viral titers; type: in vivo, C57Bl/6J mice
[3] = test system: IRF3 phosphorylation; assay: Immunoblot of IRF3 phosphorylation in RAW264.7 cells; type: cell-based, mouse; settings: RAW264.7, 100 μM DMXAA
Excerpt: as §1

[4] = test system: THP-1 cells; type: cell-based, human
[5] = test system: secreted bioactive type I or III interferon
[6] = test system: IRF3 S386 phosphorylation; type: cell-based, human
[7] = test system: Mx2 and ISG56 proteins; type: cell-based, human
[8] = test system: NF-κB-dependent LUC in THF reporter cells; type: cell-based, human
[9] = test system: THF cells
[10] = test system: human peripheral blood mononuclear cells (PBMCs); type: cell-based
[11] = test system: IRF3/IFN-dependent luciferase (LUC) in THF-ISRE; type: cell-based, human
[12] = test system: Chikungunya virus (CHIKV); assay: microbe, parasite or virus in culture; type: cell-based
[13] = test system: Venezuelan Equine Encephalitis Virus (VEEV); assay: microbe, parasite or virus in culture; type: cell-based
[14] = test system: IRF3/IFN-dependent genes in THF; type: cell-based, human
[15] = test system: Sindbis virus (SINV); type: cell-based; settings: 48 h
[16] = test system: Vaccinia Virus (VACV); type: cell-based
[17] = molecular target: T1, human STING-CTD (Homo sapiens, UniProt Q86WV6); assay: Thermal shift assay (differential scanning fluorimetry), human STING-CTD; type: binding; settings: 1 μg recombinant protein, SYPRO Orange, various concentrations
T1 construct: human STING-C-terminal domain (CTD; AA 137-379); 6xHIS; made in house; host or cells: E. coli BL21 (DE3)pLysS
T1 sequence (Q86WV6 137-379): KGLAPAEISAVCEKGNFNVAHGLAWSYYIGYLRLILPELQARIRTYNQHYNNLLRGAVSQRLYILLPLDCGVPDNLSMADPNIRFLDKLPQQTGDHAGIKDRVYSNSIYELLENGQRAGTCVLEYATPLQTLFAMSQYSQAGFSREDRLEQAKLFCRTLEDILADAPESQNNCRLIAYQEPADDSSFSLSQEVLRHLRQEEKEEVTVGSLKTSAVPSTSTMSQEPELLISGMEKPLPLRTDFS

[18] = test system: NF-κB-dependent genes (IL8, IL1β, MIP1α) in THF; type: cell-based, human
[19] = molecular target: T2, mouse STING-CTD (Mus musculus, UniProt Q3TBT3); assay: Thermal shift assay (differential scanning fluorimetry), mouse STING-CTD; type: binding; settings: 1 μg recombinant protein, SYPRO Orange, various concentrations
T2 construct: mouse STING-CTD (AA 137-378); 6xHIS; made in house; host or cells: E. coli BL21 (DE3)pLysS
T2 sequence (Q3TBT3 137-378): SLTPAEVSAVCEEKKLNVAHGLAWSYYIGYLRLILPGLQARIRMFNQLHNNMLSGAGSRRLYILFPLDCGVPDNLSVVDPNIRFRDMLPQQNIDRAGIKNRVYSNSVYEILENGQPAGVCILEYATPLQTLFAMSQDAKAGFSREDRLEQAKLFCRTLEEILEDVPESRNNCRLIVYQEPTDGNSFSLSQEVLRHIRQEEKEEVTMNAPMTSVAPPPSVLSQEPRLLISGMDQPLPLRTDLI

[20] = test system: human umbilical microvascular endothelial cells; type: cell-based
[21] = test system: West Nile Virus (WNV); type: cell-based

Which “transcription of IFNβ, ISG15, IFIT2 and Viperin” value [1] does the source give for `Cc1ccc2c(=O)c3cccc(CC(=O)O)c3oc2c1C` [DMXAA, 5,6-dimethylxanthenone-4-acetic acid] here?
Its value is “dose-dependent transcription”.

And the “serum associated CHIKV at 72 h post infection” value (“serum associated CHIKV” for short) ([2]; 25 mg/kg intraperitoneally 3 h pre-infection, 1000 PFU CHIKV)?
The value was “undetectable by plaque assay”.

What about the “serum associated CHIKV” value ([2]; 25 mg/kg intraperitoneally 6 h post infection) of the same molecule?
Its value is “still undetectable”.

And the “serum associated CHIKV” value ([2]; mouse, in vivo)?
The value was “diminished relative to DMSO-treated animals but this difference was not statistically significant”.

And the “time post-treatment at which IRF3 phosphorylation is detectable” value [3]?
The value was no more than 1 h.

Which “IRF3 activation or IRF3-dependent gene expression in THP-1” value [4] does the source give for `O=C(NCc1ccco1)c1ccc2c(c1)N(Cc1c(F)cccc1Cl)C(=O)CS2` [G10, 4-(2-chloro-6-fluorobenzyl)-N-(furan-2-ylmethyl)-3-oxo-3,4-dihydro-2H-benzo[b][1,4]thiazine-6-carboxamide] here?
The value was “does not induce IRF3 activation or IRF3-dependent gene expression”.

And the “IFN secretion by cells lacking IPS-1” value [5]?
Its value is “significantly diminished relative to wild type cells”.

And the “IFN secretion by cells lacking STING” value [5]?
The value was “failed to secrete IFN”.

And the “IFN secretion by wild type THF cells” value [5]?
Its value is “IFN secretion was detected”.

And the “IRF3 S386 phosphorylation in cells lacking STING” value [6]?
Its value is “elimination of G10-induced IRF3 S386 phosphorylation”.

And the “IRF3 phosphorylation in cells lacking IPS-1” value [6]?
The value was “functional”.

What about the “phosphorylation of IRF3 S386” value [6] of the same molecule?
Its value is “stimulates phosphorylation of IRF3”.

What about the “time post exposure at which phosphorylation of IRF3 S386 is detectable” value [6] of the same molecule?
The value was 30 m.

What about the “synthesis of Mx2 and ISG56 proteins” value [7] of the same molecule?
The value was “capable of triggering synthesis of Mx2 and ISG56 proteins”.

And the “NF-κB-dependent LUC transcription” value [8]?
The value was “no G10-associated stimulation of NF-κB-dependent transcription was detected”.

What about the cytotoxicity [9] of the same molecule?
The cytotoxicity was “low cytotoxicity even at high concentrations”.

And the “expression of IFIT1, IFIT2, IFNβ, ISG15, OAS and Viperin mRNA in PBMC” value [10]?
The value was “to degrees that were proportional to compound concentration”.

And the “transcription of NF-κB-dependent genes MIP1α and IL1β in PBMC” value [10]?
The value was “also transcriptionally induced”.

What about the “IFN/IRF3-dependent LUC expression” value [11] of the same molecule?
Its value is “able to induce LUC expression in a dose-dependent manner”.

And the “IRF3/IFN-dependent LUC expression in cells lacking IRF3” value [11]?
The value was “abrogated”.

And the “IRF3/IFN-dependent LUC expression in cells lacking STAT1” value [11]?
The value was “induce LUC expression in the absence of STAT1”.

And the “IRF3/IFN-dependent LUC induction in cells lacking IPS-1” value [11]?
The value was “strong LUC induction”.

What about the “IRF3/IFN-dependent LUC induction in cells lacking STING” value [11] of the same molecule?
The value was “fail to activate appreciable LUC”.

What about the “LUC signal in high-throughput screen” value [11] of the same molecule?
The value was “third highest signal of all those screened”.

And the “CHIKV replication in cells lacking IRF3” value [12]?
Its value is “ability of G10 to block replication of CHIKV and VEEV is lost”.

And the “reduction of CHIKV replication” value [12]?
Its value is “by over three logs”.

And the “CHIKV replication in cells lacking IPS-1” value ([12]; 48 h)?
The value was “diminishes replication of all three virus types by multiple logs”.

What about the “CHIKV replication in cells lacking STING” value ([12]; 48 h) of the same molecule?
Its value is “ability of G10 to block virus replication is absent”.

And the IC90 ([12]; Chikungunya virus, read-out: IC90 CHIKV replication)?
Its IC90 is 8.01 µM.

What about the “VEEV replication in cells lacking IRF3” value [13] of the same molecule?
Its value is “ability of G10 to block replication of CHIKV and VEEV is lost”.

And the “VEEV replication in cells lacking IPS-1” value ([13]; 24 h)?
The value was “diminishes replication of all three virus types by multiple logs”.

What about the “VEEV replication in cells lacking STING” value ([13]; 24 h) of the same molecule?
Its value is “ability of G10 to block virus replication is absent”.

What about the IC90 ([13]; Venezuelan equine encephalitis virus, read-out: IC90 VEEV replication) of the same molecule?
The IC90 was 24.6 µM.

What about the “IFNβ and IFNλ1 mRNA transcription” value [14] of the same molecule?
Its value is “leads to transcription of both IFNβ and IFNλ1 mRNAs”.

And the “ISG54, ISG15 and Viperin mRNA in cells lacking IPS-1” value [14]?
Its value is “highly transcribed”.

And the “ISG54, ISG15 and Viperin mRNA in cells lacking STING” value [14]?
Its value is “remain comparatively unstimulated”.

What about the “Mx2 and OAS mRNA induction” value [14] of the same molecule?
The value was “substantial induction”.

And the “mRNA of IRF3/IFN-dependent genes (ISG54, ISG56, ISG15, Viperin)” value [14]?
The value was “led to transcription of cellular genes triggered by IRF3/IFN-dependent signaling”.

What about the “SINV replication in cells lacking IPS-1” value [15] of the same molecule?
Its value is “diminishes replication of all three virus types by multiple logs”.

What about the “reduction of VACV growth” value [16] of the same molecule?
The value was “by approximately one log”.

What about the “thermal stability of purified human STING-CTD” value [17] of the same molecule?
The value was “did not increase the protein's thermal stability”.

And the “mRNA synthesis of endogenous NF-κB-dependent genes (IL8, IL1β, MIP1α)” value [18]?
Its value is “failed to stimulate mRNA synthesis”.

And the “thermal stability of purified mouse STING-CTD” value [19]?
The value was “did not increase the protein's thermal stability”.

And the “expression of IRF3-, IFN- and NF-κB-dependent genes in endothelial cells” value [20]?
Its value is “responded to G10 exposure by expressing IRF3-, IFN-, and NF-κB-dependent genes”.

And the “reduction of WNV growth” value [21]?
The value was “by less than one log”.

Which “IRF3 S386 phosphorylation in cells lacking STING” value [6] does the source give for `Nc1nc2c(ncn2[C@@H]2O[C@@H]3COP(=O)(O)O[C@H]4[C@@H](O)[C@H](n5cnc6c(N)ncnc65)O[C@@H]4COP(=O)(O)O[C@@H]2[C@@H]3O)c(=O)[nH]1` [2′3′-cGAMP, reference compound] here?
Its value is “absence of IRF3 S386 phosphorylation”.

And the “IRF3 phosphorylation in cells lacking IPS-1” value [6]?
Its value is “remains intact”.

What about the “time post exposure at which phosphorylation of IRF3 S386 is detectable” value [6] of the same molecule?
The value was 1 h.

And the “expression of IFIT1, IFIT2, IFNβ, ISG15, OAS and Viperin mRNA in PBMC” value [10]?
Its value is “similarly capable of activating transcription of these genes”.

What about the “mRNA synthesis of IFIT1, IFIT2, ISG15, Viperin, OAS, Mx2 over a concentration range, compared with G10” value [14] of the same molecule?
The value was “stronger mRNA synthesis”.
